Assay results as given in publication PMC6237146, “Electron transfer ferredoxins with unusual cluster binding motifs support secondary metabolism in many bacteria” (Chemical Science, 2018).

How the values were obtained:
Type in all cases: binding
CYP278A1 = molecular target: T1, CYP278A1 (Mycobacterium marinum, UniProt B2HE37); assay: UV/Vis heme spin-state shift titration
T1 construct: produced in E. coli and purified; ferric heme; gene near ferredoxin gene Mmar_2879 (Fdx2)
T1 sequence (B2HE37 1-427): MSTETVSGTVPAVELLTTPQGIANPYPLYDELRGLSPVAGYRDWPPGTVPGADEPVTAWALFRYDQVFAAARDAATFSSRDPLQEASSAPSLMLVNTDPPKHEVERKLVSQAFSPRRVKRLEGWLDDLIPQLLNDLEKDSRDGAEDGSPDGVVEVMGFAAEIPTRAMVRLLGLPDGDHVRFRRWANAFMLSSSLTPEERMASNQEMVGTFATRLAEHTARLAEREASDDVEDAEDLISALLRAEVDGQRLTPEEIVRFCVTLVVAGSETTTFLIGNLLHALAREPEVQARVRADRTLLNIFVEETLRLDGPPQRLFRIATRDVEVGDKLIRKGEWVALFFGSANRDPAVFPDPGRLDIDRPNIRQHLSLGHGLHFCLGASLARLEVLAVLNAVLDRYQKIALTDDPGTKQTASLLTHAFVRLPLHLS

CYP150A5 = molecular target: T2, CYP150A5 (Mycobacterium marinum, UniProt B2HG29); assay: UV/Vis heme spin-state shift titration
T2 construct: produced in E. coli and purified; ferric heme; gene near ferredoxin gene Mmar_4736 (Fdx8)
T2 sequence (B2HG29 1-423): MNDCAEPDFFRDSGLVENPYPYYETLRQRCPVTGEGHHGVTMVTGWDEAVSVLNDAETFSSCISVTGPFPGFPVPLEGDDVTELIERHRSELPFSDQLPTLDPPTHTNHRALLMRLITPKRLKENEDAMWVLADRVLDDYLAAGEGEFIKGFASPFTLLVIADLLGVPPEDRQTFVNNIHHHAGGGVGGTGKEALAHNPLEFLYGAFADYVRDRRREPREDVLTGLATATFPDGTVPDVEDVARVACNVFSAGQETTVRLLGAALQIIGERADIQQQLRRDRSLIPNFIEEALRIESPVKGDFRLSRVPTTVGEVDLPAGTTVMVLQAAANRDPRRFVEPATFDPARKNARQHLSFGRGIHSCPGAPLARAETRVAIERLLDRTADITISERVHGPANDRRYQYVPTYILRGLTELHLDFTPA

CYP269A1 = molecular target: T3, CYP269A1 (Mycobacterium marinum, UniProt B2HPM5); assay: UV/Vis heme Soret shift titration
T3 construct: produced in E. coli and purified; high-spin-like ferric heme (Soret 390 nm); gene near ferredoxin gene Mmar_3973 (Fdx4)
T3 sequence (B2HPM5 1-403): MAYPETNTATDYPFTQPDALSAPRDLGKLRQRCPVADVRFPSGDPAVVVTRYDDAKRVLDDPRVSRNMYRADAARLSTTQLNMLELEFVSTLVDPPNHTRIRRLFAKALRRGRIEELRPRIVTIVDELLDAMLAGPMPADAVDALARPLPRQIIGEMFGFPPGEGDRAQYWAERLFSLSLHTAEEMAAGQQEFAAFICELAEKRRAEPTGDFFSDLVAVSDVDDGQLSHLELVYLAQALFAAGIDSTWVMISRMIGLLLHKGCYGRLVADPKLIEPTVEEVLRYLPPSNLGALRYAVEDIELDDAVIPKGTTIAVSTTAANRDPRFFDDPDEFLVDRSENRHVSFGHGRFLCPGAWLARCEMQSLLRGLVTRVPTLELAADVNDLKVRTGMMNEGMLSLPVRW

CYP147G1 [1] = molecular target: T4, CYP147G1 (Mycobacterium marinum, UniProt B2HE89); assay: UV/Vis heme spin-state shift; details: purified ferric enzyme; also oxidised to indigo in E. coli with FdR1/Fdx3
T4 construct: produced in E. coli, purified by two ion exchange steps; ferric heme
T4 sequence (B2HE89 1-422): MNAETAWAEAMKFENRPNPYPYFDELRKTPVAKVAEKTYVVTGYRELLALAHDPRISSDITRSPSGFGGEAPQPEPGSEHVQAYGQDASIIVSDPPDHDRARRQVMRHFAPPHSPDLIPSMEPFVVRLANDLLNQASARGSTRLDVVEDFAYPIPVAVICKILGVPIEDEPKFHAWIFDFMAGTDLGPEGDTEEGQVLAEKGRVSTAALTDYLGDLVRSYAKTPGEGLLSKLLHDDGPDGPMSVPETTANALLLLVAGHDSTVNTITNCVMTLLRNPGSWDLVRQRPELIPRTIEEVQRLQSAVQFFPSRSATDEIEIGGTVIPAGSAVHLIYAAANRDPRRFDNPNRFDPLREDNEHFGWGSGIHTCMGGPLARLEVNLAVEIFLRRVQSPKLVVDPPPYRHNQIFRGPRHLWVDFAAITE

CYP147G1 [2] = molecular target: T4, CYP147G1; assay: UV/Vis heme spin-state shift titration; details: read-out: dissociation constant

Q: With `CC(=O)/C=C/C1=C(C)CCCC1(C)C` [β-ionone] as the compound, how does the Kd (CYP278A1) read?
A: 5.1 ± 1.5 µM

Q: What about the Kd (CYP150A5) of the same compound?
A: 41 ± 3 µM

Q: How did the Kd (CYP269A1) turn out when `Clc1ccc(COC(Cn2ccnc2)c2ccc(Cl)cc2Cl)c(Cl)c1` (centres unmarked) [miconazole] was run?
A: 0.05 ± 0.007 µM

Q: Which “% high-spin” value (CYP147G1 [1]) does the source give for `c1ccc2[nH]ccc2c1` [indole] here?
A: < 5%

Q: For `CCCCCCCCCCC(=O)O` [undecanoic acid], which Kd (CYP147G1 [2]) is on record?
A: 25 ± 4 µM
